These results are taken from the supplement of paper PMC10290057.

Test [1] has as its system HCT116. Kind of test: AC50 cell viability (CellTiter-Glo); higher = less potent. The following applies: 48 h. On the technique in general: ATP-based viability assays read luminescence as a measure of living cells.
Test [2] relates to HCT116. In words: efficacy (fitted maximal change in viability relative to DMSO control); higher = less cytotoxic (negative = loss of viability). Conditions: 48 h.
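For AC50 cell viability (CellTiter-Glo) in this document: HCT116 colorectal carcinoma cells screened at five concentrations per compound, luminescent viability scaled between DMSO wells and empty wells on each plate, curves fitted per compound.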
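For efficacy (fitted maximal change in viability relative to DMSO control) in this document: Luminescence-based viability readout, five doses per compound, normalized against on-plate DMSO and empty-well controls, followed by dose-response curve fitting for every drug.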

In test [1], `O=C(Nc1cccc(C(F)(F)F)c1)Nc1cc([S+](=O)([O-])NC2CC2)ccc1-c1ccsc1` [AGI-6780] displayed an AC50 cell viability of 26.3 µM. Also, the efficacy in test [2] is -99.4%.
The like results for `O=C(O)c1ccc2cc(-c3ccc(O)c(C45CC6CC(CC(C6)C4)C5)c3)ccc2c1` [AHPN] were, in that order, 2.95 µM and -88.2%.
The like results for `c1ccc(-c2oc3ncnc(NC[C@@H]4CCCO4)c3c2-c2ccccc2)cc1` [AIM-100] were, in that order, 9.34 µM and -69.3%.
The like results for `O=c1[nH]c2ccccc2n1C1CCN(Cc2ccc(-c3nc4cc5nc[nH]c5cc4nc3-c3ccccc3)cc2)CC1` [AKT Inhibitor VIII] were, in that order, 16.6 µM and -84.5%.
Molecule `CCN1CCN(Cc2ccc(NC(=O)c3ccc(C)c(NC(=O)c4cncc(-c5cccs5)c4)c3)cc2C(F)(F)F)CC1` [ALW-II-41-27] displayed an AC50 cell viability in test [1] of 1.86 µM. Besides, the efficacy in test [2] is -111%.
For `CN(CCO)C1CCN(c2ccc(Nc3ncc4c5ccnc(F)c5n(C5CCCC5)c4n3)nc2)CC1` [AM-5992] the same measures were 1.02 µM and -50%.
`COC1=CC=C2C(=CC=NC2=C1)OC3=CC=C(NC(=O)\C4=C(C)\N(CC(C)(C)O)N(C4=O)C5=CC=CC=C5)C=C3F` [AMG-1]: the AC50 cell viability in test [1] was 11.8 µM. Further, the efficacy in test [2] is -67.9%.
The like results for `CC\1=C(C(=O)N(\C=C1)C2=CC=C(C=C2)C3=NC=CO3)/C4=CC5=CN=C(N)N=C5C=C4` [AMG-25] were, in that order, 1.66 µM and -47.6%.
On to `Cc1ccc(C(=O)Nc2cccc(C(F)(F)F)c2)cc1-c1ccc2nc(NCCN3CCOCC3)ncc2c1` [AMG-47a], for which the AC50 cell viability in test [1] stood at 2.35 µM. In addition, the efficacy in test [2] was -101%.
For `COC1=C(OCCCN2CCOCC2)C=C3N=CC=C(OC4=CC=C(C=C4F)\C5=C\N=C(\NC6=CC=C(F)C=C6)N(C)C5=O)C3=C1` [AMG-51] the same measures were 16.6 µM and -136%.
`CC(C)[C@@H](C[S+](=O)([O-])C(C)C)N1C(=O)[C@@](C)(CC(=O)O)C[C@H](c2cccc(Cl)c2)[C@H]1c1ccc(Cl)cc1` [AMG-232]: the AC50 cell viability in test [1] was determined as 1.48 µM. In addition, the efficacy in test [2] was -84.7%.
As to `COC1=CC2=NC=CC(=C2C=C1)OC3=CN=C(NC(=O)C/4=C(C)/N(CC(C)(C)O)N(C4=O)C5=CC=CC=C5)C=C3` [AMG-458], in test [1], the AC50 cell viability was 16.6 µM. Moreover, the efficacy in test [2] was -71.6%.
Molecule `COc1ncc(Nc2ncc([C@H](C)N3CCN([S+](C)(=O)[O-])CC3)cc2-c2nc(C)nc(N)n2)cc1F` [AMG-511] returned an AC50 cell viability in test [1] of 5.9 µM. In addition, the efficacy in test [2] is -80.5%.
For `CN\1C(=O)/C(=C(\N=C1NC[C@@H](N)CC2=CC=CC=C2)C3=CC=NC=C3)C4=CC5=C(C=CC=C5)C=C4` [AMG-548] the same measures were 20.9 µM and -101%.
For `CC#C[C@@H](CC(=O)O)c1ccc(OCc2cccc(-c3ccc(C(F)(F)F)cc3)c2)cc1` [AMG-837], the AC50 cell viability in test [1] worked out at 20.9 µM. The efficacy in test [2] was -40.8%.
In test [1], `Cc1csc(-c2nnc(Nc3ccc(Oc4ncccc4-c4ccnc(N)n4)cc3)c3ccccc23)c1` [AMG-900] had an AC50 cell viability of 16.6 µM. The efficacy in test [2] was -52.9%.
For `CNc1nccc(-c2cccnc2Oc2cc(C(=O)Nc3cccc(C(F)(F)F)c3)ccc2C)n1` [AMG-Tie2-1] the same measures were 1.66 µM and -78.8%.
With `Cc1[nH]c2ccc(F)cc2c1-c1nc2c3cccnc3c3ncccc3c2[nH]1` [APTO-253], in test [1], the AC50 cell viability amounted to 0.679 µM. For the same molecule, in test [2], the efficacy was -77.4%.
`c1cc(Nc2cc(C3CC3)n[nH]2)nc(Nc2ccc3nc[nH]c3c2)n1` [APY29] yielded an AC50 cell viability in test [1] of 0.235 µM. Further, in test [2], the efficacy was -66.4%.
Take `NCCCN([C@H](CC#C)C/1=N/C2=C(C=CC(=C2)Cl)C(=O)N1NC3=CC=CC=C3)C(=O)C4=CC=CC(=C4F)Cl` [ARQ-621]: the AC50 cell viability in test [1] stood at 0.468 µM. Besides, the efficacy in test [2] is -102%.
The like results for `Cn1cnc2c(F)c(Nc3ccc(Br)cc3F)c(C(=O)NOCCO)cc21` [ARRY-162] were, in that order, 0.468 µM and -60.8%.
`C[C@H](NC(=O)[C@@H]1C[C@@H](O)CN1C(=O)[C@@H](NC(=O)COCCCOCCNC(=O)C[C@@H]2\N=C(C3=CC=C(Cl)C=C3)/C4=C(SC(=C4C)C)[N]5C(=NN=C25)C)C(C)(C)C)C6=CC=C(C=C6)C7=C(C)N=CS7` [ARV-771] displayed an AC50 cell viability in test [1] of 0.148 µM. In addition, the efficacy in test [2] is -91%.
Turning to `CC1=C(C)C\2=C(S1)[N]3C(=NN=C3[C@H](CC(=O)NC4=CC=C(OCCOCCOCCOCCNC5=CC=CC6=C5C(=O)N(C7CCC(=O)NC7=O)C6=O)C=C4)\N=C2C8=CC=C(Cl)C=C8)C` (stereo partly drawn) [ARV-825], the AC50 cell viability in test [1] stood at 0.263 µM. For the same molecule, the efficacy in test [2] was -73.3%.
For `COc1cc(N2CCC(N3CCN(C)CC3)CC2)ccc1Nc1ncnc(Nc2ccccc2[S+](=O)([O-])C(C)C)n1` [ASP-3026] the same measures were 4.68 µM and -82.2%.
For `C=CC(=O)Nc1ccc2ncnc(Nc3ccc(OCc4cccc(F)c4)c(Cl)c3)c2c1` [AST-1306], the AC50 cell viability in test [1] came to 11.8 µM. The efficacy in test [2] is -98.3%.
In test [1], `O=C(NC1CCNCC1)c1n[nH]cc1NC(=O)c1c(Cl)cccc1Cl` [AT-7519] displayed an AC50 cell viability of 0.235 µM. Also, the efficacy in test [2] was -65.1%.
`Clc1ccc(C2(c3ccc(-c4cn[nH]c4)cc3)CCNCC2)cc1` [AT-7867] showed an AC50 cell viability in test [1] of 18.6 µM. Moreover, the efficacy in test [2] is -87.4%.
In the case of `O=C(Nc1c[nH]nc1-c1nc2cc(CN3CCOCC3)ccc2[nH]1)NC1CC1` [AT-9283], the AC50 cell viability in test [1] amounted to 0.417 µM. For the same molecule, the efficacy in test [2] is -62.5%.
For `C=CC(=O)Nc1cc2c(Nc3ccc(F)c(Cl)c3)ncnc2cc1C#CC(C)(C)N1CCN(C)CC1` [AV-412] the same measures were 9.34 µM and -104%.
In turn, `CC[C@H](CC#N)OC(=O)N[C@@H](C)c1cccc(NC(=O)Nc2ccc(-c3cnco3)c(OC)c2)c1` [AVN944] registered an AC50 cell viability in test [1] of 0.332 µM. Moreover, the efficacy in test [2] is -72.8%.
For `CC(C)Oc1cc(Nc2nc(N[C@@H](C)c3ccc(F)cn3)ncc2Cl)n[nH]1` [AZ-23] the same measures were 5.25 µM and -67.9%.
For `CCCc1cc(C(=O)N[C@H](Cc2ccc(-c3cccc(OC(F)(F)F)c3)nc2)C(=O)N[C@@H]2CCNC2)sc1C` [AZ-82] the same measures were 8.33 µM and -97.3%.
On to `COc1cc(N2CCN(C)CC2)ccc1Nc1nccc(-c2cn(C)c3cnccc23)n1` [AZ-191], for which, in test [1], the AC50 cell viability was 18.6 µM. Also, the efficacy in test [2] was -88.4%.
On to `CN1\C=N/C2=CC=C(NC3=CC(=CC=C3C)NC(=O)C4=CC(=CC=C4)C(C)(C)C#N)C=C2C1=O` [AZ-628], for which the AC50 cell viability in test [1] was determined as 0.332 µM. In addition, the efficacy in test [2] is -50.6%.
The molecule `Cc1cc(Nc2nc(N[C@@H](C)c3ccc(F)cc3)c(C#N)cc2F)n[nH]1` [AZ-960] yielded an AC50 cell viability in test [1] of 5.9 µM. Also, the efficacy in test [2] is -100%.
The like results for `COc1cc(OC2CCN(C)CC2)ccc1Nc1ncc2c(n1)n(C1CCCC1)c(=O)n2C` [AZ-3146] were, in that order, 5.9 µM and -102%.
`O=C1N\N=C(\CC2=CC=CC(=C2)C(=O)N3CCN(CC3)C4=NC=CC=C4C#N)C5=CC=CC=C15` [AZ-9482] displayed an AC50 cell viability in test [1] of 5.25 µM. Moreover, the efficacy in test [2] is -54.2%.
Consider `NC(=O)Nc1cc(-c2ccc(CN3CCOCC3)cc2)sc1C(N)=O` [AZ-TAK1 Inhibitor], for which, in test [1], the AC50 cell viability was 5.25 µM. Further, the efficacy in test [2] is -71%.
The like results for `CN(C)CCCOc1ccc(-c2ccc3ncc4c(c3c2)n(C2CCOCC2)c(=O)n4C)cn1` [AZD-0156] were, in that order, 7.23 µM and -86%.
The like results for `NC1CCCN(c2c(/C=C3\SC(=O)NC3=O)cccc2-c2ccccc2)C1` (stereo not drawn) [AZD-1208] were, in that order, 23.5 µM and -67.1%.
The like results for `Cc1cc(Nc2nc(N[C@@H](C)c3ncc(F)cn3)ncc2Cl)n[nH]1` [AZD-1480] were, in that order, 5.25 µM and -66.2%.
`C[C@H]1COCCN1c1cc(C2([S+](=O)([O-])C3CC3)CC2)nc(-c2ccc(NC(=S)NCCO)cc2)n1` [AZD-3147] showed an AC50 cell viability in test [1] of 7.42 µM. In test [2], the efficacy was -113%.
For `COc1cc(N2CCC(N)CC2)ccc1Nc1ncc(Cl)c(-c2c[nH]c3ccccc23)n1` [AZD-3463] the same measures were 5.9 µM and -137%.
The like results for `COc1cc(CCc2cc(NC(=O)c3ccc(N4C[C@@H](C)N[C@@H](C)C4)cc3)n[nH]2)cc(OC)c1` [AZD-4547] were, in that order, 10.5 µM and -98.5%.
In test [1], `COc1nnc2ccc(N3CCC(c4ccc(OCCN5CCN(C)C(=O)[C@H]5C)cc4)CC3)nn12` [AZD-5153 6-Hydroxy-2-naphthoic acid] showed an AC50 cell viability of 0.0833 µM. In test [2], the efficacy was -68.6%.
Consider `NC1(C(=O)N[C@@H](CCO)c2ccc(Cl)cc2)CCN(c2ncnc3[nH]ccc23)CC1` [AZD-5363], for which the AC50 cell viability in test [1] was found to be 11.8 µM. In test [2], the efficacy is -83.1%.
The like results for `Cc1ncc(-c2ccnc(Nc3ccc([S+](C)(=O)[O-])cc3)n2)n1C(C)C` [AZD-5438] were, in that order, 0.525 µM and -62.2%.
In test [1], `C[C@@H](NC1=CC=CC=C1C(O)=O)C/2=C/C(=C\N3C(=O)/C=C(\N=C23)N4CCOCC4)C` [AZD-6482] came in with an AC50 cell viability of 10.5 µM. For the same molecule, the efficacy in test [2] is -52.7%.
For the molecule `C[C@@H]1COCCN1c1cc(C2([S@+](C)(=N)[O-])CC2)nc(-c2ccnc3[nH]ccc23)n1` [AZD-6738], the AC50 cell viability in test [1] came out at 8.33 µM. In test [2], the efficacy is -84.1%.
